US20210087238A1, “CELL PENETRATING PEPTIDES AND RELATED COMPOSITIONS AND METHODS” (Phylogica Limited, priority 2017, published 2021)
Like-named read-outs stand apart in the source and are kept apart here. Where a SMILES comes first, the peptide text is derived from it. Where no end group is shown, it is not given here. [ ]: non-standard residue; d: D form.

Experiments:
T47D cells [1] = experiment: Cell viability assay of FPP1.1_SpyT variants conjugated to SpyC_PAP, resazurin reduction; type: cell-based; conditions: 48 h incubation, FIG. 5
Method: Cell viability assay on T47D cells of FPP1.1_SpyT peptide compared to retro-inverso (RI) and dimerised variants conjugated to the SpyCatcher_PAP (SpyC_PAP) mitochondriotoxic cargo. T47D cells were seeded at 6×10^3 cells per well and treated the following day with FPP-Toxic cargo conjugates. Following 48 h incubation cell viability was assessed by resazurin reduction potential.
(§1) With the exception of SpyC PAS proteins, conjugations were set up at a SpyCatcher:SpyTag ratio of 1:1.25, with a 40 μM final concentration for the SpyCatcher moiety. SpyC proteins and SpyTag peptides were incubated for 2 h at 22° C. with gentle mixing, and then left at 4° C. overnight. Conjugation efficiencies were analyzed on 4-16% SDS-PAGE gels stained with Gel Code Blue Reagent (Thermo Fisher Scientific). SpyC_PAS proteins were conjugated with SpyTag peptides at ratio 1:1.1, mixed and incubated at room temperature for 30 mins before being stored overnight at 4° C.
(§2) All assays followed manufacturer's instructions.

CHO-K1 cells [2] = conditions: up to 50 μM; for cytotoxicity of peptides alone, cell viability: 24 h and 48 h incubation; for cytotoxicity of peptides alone, LDH release (membrane integrity): 2 h and 24 h incubation
Method: Cell viability effect on CHO-K1 cells of Phylomer™ CPPs and variants compared to the canonical CPPs TAT and Penetratin following 24 h (A) and 48 h (B) incubation with peptides. Cell viability was assessed by resazurin reduction potential. Membrane integrity of CHO-K1 cells were assessed by LDH release following 2 h (C) and 24 h (D) incubation with peptides. […] Results are representative of 3 independent experiments. Error bars represent standard deviation from the mean of triplicate samples.
(§3) Cells in were seeded at 2000-6000 cells/well, depending on cell line, in 96-well plates (PAP assays: CHO-K1, 3000 cells/well; peptide cytotoxicity assays: CHO-K1, 5000 cells/well; Bouganin assay: CHO-K1 and CHO-K1 EGFR, 2500 cells/well; ^DPMIα assays: T47D, 5000 cells/well; Omomyc assays: all cell lines, 5000 cells/well). In brief, adherent cells were allowed to attach for 24 h prior to addition of treatments whereas suspension cell lines were treated immediately following seeding. Following 2-48 h incubations with treatments, cell viability was measure by a variety of methods. Membrane integrity was assessed by the release of LDH into the media via the CytoTox-ONE reagent (Promega). Metabolic activity was measured either by resazurin reduction potential using PrestoBlue (LifeTech) or ATP activity using CellTitre-Glo (Promega). All assays followed manufacturer's instructions. IC50 values were calculated using Prism (version 7.0a, GraphPad).
When delivering therapeutics into a cell, it is critical that the delivery molecule itself is not cytotoxic. To assess innate cytotoxicity we tested the effects of FPPs alone on cell viability at 24 h (FIG. 6A) and 48 h (FIG. 6B) after addition of peptides. The effects of FPPs on membrane stability of cells was also assessed in a LDH enzymatic assay, measuring release of LDH from cells into surrounding media at 2 h (FIG. 6C) and 24 h (FIG. 6D) after treatment with peptides.

T47D cells [3] = conditions: for IC50: 48 h; for delivery of DPMIα, comparison of 10 μM peptide treatments: FIG. 8B, one-way ANOVA; for effect on T47D cell viability of CPP-delivered DPMIα: 48 h incubation, FIG. 8A
Method: Cell viability was assessed by resazurin reduction potential after 48 h incubation with peptides. […] Results are representative of 3 independent experiments.
as §3
^DPMIα is a small peptide (SEQ ID NO:105), which when conjugated to cationic CPPs can internalize into cells, bind to MDM2 (acting as a dominant negative peptide) and lift p53 suppression causing indiscriminate cytotoxicity (Liu, supra).

CHO-K1 cells [4] = experiment: PAP cell viability assay: SpyC_PAP conjugated to CPP_SpyT, resazurin reduction; type: cell-based; conditions: for cell death caused by SpyC-PAP conjugate: compared to TAT or Penetratin-delivered SpyC_PAP
Method: as §1, §2
SpyC-PAP/CPP-SpyT complex IC50s were ranked according to potency to determine impact of changes to primary CPP sequence. Sequence variations positively impacting on potency are retained for further optimization, whereas sequence variations deleterious to potency are excluded, thus establishing sequence activity relationships for the CPP peptide. SpyC_BLA/CPP-SpyT complex median cell fluorescence at 4 μM concentration was ranked according to intensity to determine impact of changes to primary CPP sequence. Sequence variations positively impacting on intensity were retained for further optimization, whereas sequence variations deleterious to intensity were excluded, thus establishing sequence activity relationships for the CPP peptide.
For the first readout of functional activity we chose the proapoptotic peptide PAP (SEQ ID NO:61; Ellerby et al 1999, Nat Med, 5, 1032-1038) as a functional cargo and expressed it recombinantly, fused to SpyCatcher (SEQ ID NO:83) (abbreviated as “SpyC_PAP” or “SpyC-PAP”; SEQ ID NO:62) to enable subsequent conjugation with synthetic CPP-SpyTag fusion proteins. Mammalian cells were incubated with SpyC_PAP-CPP protein conjugates, which induce apoptosis if successfully delivered into cells. […] As a representative member of the largest cluster of sequences from the screen, FPP1 was selected for additional optimization studies.

[5] = PAP assay, variant_SpyT/SpyC_PAP

C[C@@H](O)[C@H](NC(=O)[C@H](CCCCN)NC(=O)[C@@H]1CCCN1C(=O)[C@H](CCCCN)NC(=O)[C@H](CCCCN)NC(=O)[C@@H]1CCCN1C(=O)[C@H](CCCCN)NC(=O)[C@@H]1CCCN1C(=O)[C@@H]1CCCN1C(=O)[C@H](CCC(N)=O)NC(=O)[C@H](CCCCN)NC(=O)[C@H](CCCCN)NC(=O)[C@H](CCCCN)NC(=O)[C@@H](N)CCCCN)C(=O)N[C@@H](CCC(N)=O)C(=O)N[C@@H](CCC(=O)O)C(=O)N[C@@H](CCCCN)C(=O)N[C@@H](CCCCN)C(=O)N[C@@H](CCCCN)C(=O)N[C@@H](CCCCN)C(=O)N[C@@H](CCC(N)=O)C(=O)N1CCC[C@H]1C(=O)N1CCC[C@H]1C(=O)N[C@@H](CCCCN)C(=O)N1CCC[C@H]1C(=O)N[C@@H](CCCCN)C(=O)N[C@@H](CCCNC(=N)N)C(=O)O [FPP1.1] (H-KKKKQPPKPKKPKTQEKKKKQPPKPKR-OH)
IC50 (T47D cells [1]): 8.7 µM
cytotoxicity of peptides alone, cell viability (CHO-K1 cells [2]): lack of cytotoxicity

CC[C@H](C)[C@H](NC(=O)[C@H](CCCCN)NC(=O)[C@@H](NC(=O)[C@H](CCC(N)=O)NC(=O)[C@@H](N)CCCNC(=N)N)[C@@H](C)CC)C(=O)N[C@@H](Cc1c[nH]c2ccccc12)C(=O)N[C@@H](Cc1ccccc1)C(=O)N[C@@H](CCC(N)=O)C(=O)N[C@@H](CC(N)=O)C(=O)N[C@@H](CCCNC(=N)N)C(=O)N[C@@H](CCCNC(=N)N)C(=O)N[C@@H](CCSC)C(=O)N[C@@H](CCCCN)C(=O)N[C@@H](Cc1c[nH]c2ccccc12)C(=O)N[C@@H](CCCCN)C(=O)N[C@@H](CCCCN)C(=O)NCC(=O)N[C@@H](C)C(=O)N[C@@H](CO)C(=O)N[C@@H](C)C(=O)N[C@@H](Cc1c[nH]cn1)C(=O)N[C@H](C(=O)N[C@H](C(=O)N[C@@H](CCSC)C(=O)N[C@H](C(=O)N[C@@H](CC(=O)O)C(=O)N[C@@H](C)C(=O)N[C@@H](Cc1ccc(O)cc1)C(=O)N[C@@H](CCCCN)C(=O)N1CCC[C@H]1C(=O)N[C@H](C(=O)N[C@@H](CCCCN)C(=O)NCC(=O)O)[C@@H](C)O)C(C)C)C(C)C)[C@@H](C)CC [Penetratin CPP-SpyTag fusion]
cytotoxicity of peptides alone, cell viability (CHO-K1 cells [2]): some inconsistent cytotoxicity at the highest concentrations

CC(C)C[C@@H](NC(=O)[C@@H](CC(C)C)NC(=O)[C@@H](CCCCN)NC(=O)[C@@H](CCC(=O)O)NC(=O)[C@@H](CC(C)C)NC(=O)[C@@H](CC(N)=O)NC(=O)[C@@H](C)NC(=O)[C@@H](Cc1ccc(O)cc1)NC(=O)[C@@H](Cc1c[nH]c2ccccc12)NC(=O)[C@@H](CC(N)=O)NC(=O)[C@H](NC(=O)[C@H](CO)NC(=O)[C@H](C)NC(=O)CNC(=O)[C@H](CCCNC(=N)N)NC(=O)[C@H](CCCNC(=N)N)NC(=O)[C@H](CCCNC(=N)N)NC(=O)[C@H](CCC(N)=O)NC(=O)[C@H](CCCNC(=N)N)NC(=O)[C@H](CCCNC(=N)N)NC(=O)[C@H](CCCCN)NC(=O)[C@H](CCCCN)NC(=O)[C@H](CCCNC(=N)N)NC(=O)CN)[C@H](C)O)C(=O)N[C@H](CCCNC(=N)N)C(=O)O [TAT_^DPMIα, GRKKRRQRRRGAStnwyanlekllr, reference compound] (H-GRKKRRQRRRGAS[dT][dN][dW][dY][dA][dN][dL][dE][dK][dL][dL][dR]-OH; N-terminus and C-terminus assumed)
IC50 (T47D cells [3]): 36.6 µM

PLKPKKPKTQEKKKKQPPKPKKPKTQEKKKKQPPKPK (Amino acid sequence of a Sindbis virus capsid-derived CPP (SAR12)) [FPP1-SAR12]
loss/reduction of activity (potency) relative to parental FPP1 (CHO-K1 cells [4]; [5]): approximately 2.2 fold

SpyC only control: SpyCatcher control without CPP [reference compound]
cell death caused by SpyC-PAP conjugate (CHO-K1 cells [4]; FIG. 4A): no effect

TLKTKKTKTQEKKKKQTTKTKKTKTQEKKKKQTTKTKR (Amino acid sequence of a Sindbis virus capsid-derived CPP (SAR16 P_T)) [FPP1-SAR16]
improvement of activity relative to full length FPP1 (CHO-K1 cells [4]; [5]): 1.7 fold

KTQEKKKKQTTKTKKTKTQEKKKKQTTKTKR (Amino acid sequence of a Sindbis virus capsid-derived CPP (1746P_T)) [FPP1-P_T]
effect of truncation or mutation on CPP potency (CHO-K1 cells [4]; PAP assay, relative to parental FPP1): unaffected

GRKKRRQRRR (Amino acid sequence of TAT CPP) [reference compound]
cytotoxicity of peptides alone, LDH release (membrane integrity) (CHO-K1 cells [2]): non-toxic
cytotoxicity of peptides alone, cell viability (CHO-K1 cells [2]): non-toxic
delivery of DPMIα, comparison of 10 μM peptide treatments (T47D cells [3]): significantly improved compared to DPMIα peptide alone

CC[C@H](C)[C@H](NC(=O)[C@H](Cc1c[nH]cn1)NC(=O)[C@H](C)NC(=O)[C@H](CO)NC(=O)[C@H](C)NC(=O)CNC(=O)[C@H](CCCNC(=N)N)NC(=O)[C@H](CCCNC(=N)N)NC(=O)[C@H](CCCNC(=N)N)NC(=O)[C@H](CCC(N)=O)NC(=O)[C@H](CCCNC(=N)N)NC(=O)[C@H](CCCNC(=N)N)NC(=O)[C@H](CCCCN)NC(=O)[C@H](CCCCN)NC(=O)[C@H](CCCNC(=N)N)NC(=O)CN)C(=O)N[C@H](C(=O)N[C@@H](CCSC)C(=O)N[C@H](C(=O)N[C@@H](CC(=O)O)C(=O)N[C@@H](C)C(=O)N[C@@H](Cc1ccc(O)cc1)C(=O)N[C@@H](CCCCN)C(=O)N1CCC[C@H]1C(=O)N[C@H](C(=O)N[C@@H](CCCCN)C(=O)NCC(=O)O)[C@@H](C)O)C(C)C)C(C)C [TAT-SpyTag fusion]
cytotoxicity of peptides alone, LDH release (membrane integrity) (CHO-K1 cells [2]): no cytotoxic activity
cytotoxicity of peptides alone, cell viability (CHO-K1 cells [2]): no cytotoxic activity

KKKKQPPKPKKPKTQEKKKKQPPKPKRGASAHIVMVDAYKPTKGASKKKKQPPKPKKPKTQEKKKKQPPKPKR [dimerised FPP1.1]
IC50 (T47D cells [1]): 6.3 µM

PLKPKKPKTQEKKKKQPPKPKKPKTQEKKKKQPPKPKRGAS[dT][dN][dW][dY][dA][dN][dL][dE][dK][dL][dL][dR] [FPP1_^DPMIα]
IC50 (T47D cells [3]): 9.1 µM
effect on T47D cell viability of CPP-delivered DPMIα (T47D cells [3]): significantly more cytotoxic than ^DPMIα alone

KKQPPKPKKPKTQEKKKKQPPKPKR (Amino acid sequence of a Sindbis virus capsid-derived CPP (SAR5)) [FPP1-SAR5]
loss/reduction of activity (potency) relative to parental FPP1 (CHO-K1 cells [4]; [5]): 3 fold

PLKPKKPKTQEKKKKQPPKPKKPKTQEKKKKQPPKPKR (Amino acid sequence of a Sindbis virus capsid-derived CPP (SVC27)) [FPP1]
potency of FPP-delivered PAP conjugate (decrease in CHO-K1 cell viability), order of potency (CHO-K1 cells [4]; CPP_SpyT conjugated to SpyC_PAP, resazurin, FIG. 4A): greatest potency
cell death caused by SpyC-PAP conjugate (CHO-K1 cells [4]; FIG. 4A): significant cell death
delivery of DPMIα, comparison of 10 μM peptide treatments (T47D cells [3]): significantly improved delivery compared to TAT
effect on T47D cell viability of CPP-delivered DPMIα (T47D cells [3]): dose dependent decrease in T47D cell viability

PLRPRRPRTQERRRRQPPRPRRPRTQERRRRQPPRPRR (Amino acid sequence of a Sindbis virus capsid-derived CPP (SAR 17)) [FPP1-SAR17]
loss/reduction of activity (potency) relative to parental FPP1 (CHO-K1 cells [4]; [5]): 1.5 fold
